Data reported in patent US7622481B2, “Antibacterial compounds” (priority 2003, dated 2009).
Counter-ions that a name gives are not always drawn.

Assay: MIC of test compounds against various organisms
Format: cell-based
Settings: not given
Procedure: The MIC (μg/ml) of test compounds against various organisms was determined including:
S. epidermidis CL7, S. aureus WCUH29, S. pneumoniae 1629, S. pyogenes CN10, H. influenzae ATCC 49247, E. faecalis 2, M. catarrhalis Ravasio, E. coli 7623.

Compound	MIC [µg/mL]
COc1ccc2nccc(NC(=O)[C@@H]3CC[C@@H](NCc4ccc5c(n4)NC(=O)CO5)[C@@H](F)C3)c2n1 [Example 31, (1R,3S,4R)-3-Fluoro-4-[(3-oxo-3,4-dihydro-2H-pyrido[3,2-b][1,4]oxazin-6-ylmethyl)-amino]-cyclohexanecarboxylic acid (6-methoxy-[1,5]naphthyridin-4-yl)-amide dihydrochloride]	≤ 2
COc1ccc2nccc(NC(=O)[C@@H]3CC[C@@H](NCc4nc5c(cc4F)SCC(=O)N5)[C@@H](F)C3)c2n1 [Example 32, (1R,3S,4R)-3-Fluoro-4[(7-fluoro-3-oxo-3,4-dihydro-2H-pyrido[3,2-b][1,4]thiazin-6-ylmethyl)-amino]-cyclohexanecarboxylic acid (6-methoxy-[1,5]naphthyridin-4-yl)-amide dihydrochloride]	≤ 2
N#Cc1ccc2cccc(NC(=O)[C@@H]3CC[C@@H](NCc4cc5c(cn4)OCCO5)[C@@H](O)C3)c2n1 [Example 37, (1R,3S,4R)-4-[(2,3-Dihydro-[1,4]dioxino[2,3-c]pyridin-7-ylmethyl)-amino]-3-hydroxy-cyclohexanecarboxylic acid (2-cyano-quinolin-8-yl)-amide hydrochloride]	≤ 2
CO[C@@H]1C[C@H](C(=O)Nc2cccc3ccc(C)nc23)CC[C@H]1NCc1cc2c(cn1)OCCO2 [Example 39, (1R,3R,4R)-4-[(2,3-Dihydro-[1,4]dioxino[2,3-c]pyridin-7-ylmethyl)-amino]-3-methoxy-cyclohexanecarboxylic acid (2-methyl-quinolin-8-yl)-amide dihydrochloride]	≤ 2

Same assay, conditions: versus all these organisms (panel of 8 strains); read-out: MIC

MIC [µg/mL]	Compound
≤ 8	COc1cccc2nccc(NC(=O)[C@]3(O)CC[C@@H](NCc4ccc5c(n4)NC(=O)CS5)CC3)c12 [Example 28, 1-Hydroxy-t-4-[(3-oxo-3,4-dihydro-2H-pyrido[3,2-b][1,4]thiazin-6-ylmethyl)-amino]-r-cyclohexanecarboxylic acid (5-methoxy-quinolin-4-yl)-amide dihydrochloride]
≤ 2	COc1cnc2cccc(NC(=O)[C@]3(O)CC[C@@H](NCc4ccc5c(n4)NC(=O)CS5)CC3)c2n1 [Example 34, 1-Hydroxy-t-4-[(3-oxo-3,4-dihydro-2Hpyrido[3,2-b][1,4]thiazin-6-ylmethyl)-amino]-r-cyclohexanecarboxylic acid (3-methoxy-quinoxalin-5-yl)-amide hydrochloride]
≤ 8	Cc1ccc2cccc(NC(=O)[C@]3(O)CC[C@@H](NCc4cc5c(cn4)OCCO5)CC3)c2n1 [Example 35, t-4-[(2,3-Dihydro-[1,4]dioxino[2,3-c]pyridin-7-ylmethyl)-amino]-1-hydroxy-c-cyclohexanecarboxylic acid (2-methyl-quinolin-8-yl)-amide dihydrochloride]
≤ 8	Cc1ccc2cccc(NC(=O)[C@H]3CC[C@H](NCc4cc5c(cn4)OCCO5)CC3)c2n1 [Example 36, t-4-[(2,3-Dihydro-[1,4]dioxino[2,3-c]pyridin-7-ylmethyl)-amino]-cyclohexanecarboxylic acid (2-methyl-quinolin-8-yl)-amide dihydrochloride]
≤ 2	N#Cc1ccc2cccc(NC(=O)[C@]3(O)CC[C@@H](NCc4cc5c(cn4)OCCO5)CC3)c2n1 [Example 38, t-4-[(2,3-Dihydro-[1,4]dioxino[2,3-c]pyridin-7-ylmethyl)-amino]-1-hydroxy-r-cyclohexanecarboxylic acid (2-cyano-quinolin-8-yl)-amide hydrochloride]
≤ 2	N#Cc1ccc2nccc(NC(=O)[C@]3(O)CC[C@@H](NCc4ccc5c(n4)NC(=O)CS5)CC3)c2c1 [Example 40, 1-Hydroxy-t-4-[(3-oxo-3,4-dihydro-2H-pyrido[3,2-b][1,4]thiazin-6-ylmethyl)-amino]-r-cyclohexanecarboxylic acid (6-cyano-quinolin-4-yl)-amide dihydrochloride]
≤ 8	Cc1cnc2cccc(NC(=O)[C@]3(O)CC[C@@H](NCc4cc5c(cn4)OCCO5)CC3)c2n1 [Example 42, t-4-[(2,3-Dihydro[1,4]dioxino[2,3-c]pyridin-7-ylmethyl)amino]-1-hydroxy-N-(3-methyl-5-quinoxalinyl)-r-cyclohexanecarboxamide dihydrochloride]

Same assay, conditions: versus at least one of these organisms (panel of 8 strains); read-out: MIC

MIC [µg/mL]	Compound
≤ 16	Cc1cnc2c(NC(=O)[C@]3(O)CC[C@@H](NCc4ccc5c(n4)NC(=O)CS5)CC3)cccc2n1 [Example 30, 1-Hydroxy-t-4-[(3-oxo-3,4-dihydro-2H-pyrido[3,2-b][1,4]thiazin-6-ylmethyl)-amino]-r-cyclohexanecarboxylic acid (2-methyl-quinoxalin-5-yl)-amide dihydrochloride]

Same assay, conditions: versus some of these organisms (panel of 8 strains); read-out: MIC

MIC [µg/mL]	Compound
≤ 2	O=C1COc2ccc(CN[C@H]3CC[C@](O)(C(=O)Nc4ccnc5ccncc45)CC3)nc2N1 [Example 29, 1-Hydroxy-t-4-[(3-oxo-3,4-dihydro-2H-pyrido[3,2-b][1,4]oxazin-6-ylmethyl)-amino]-r-cyclohexanecarboxylic acid [1,6]naphthyridin-4-ylamide]
≤ 2	CC1CNc2cccc(NC(=O)[C@]3(O)CC[C@@H](NCc4ccc5c(n4)NC(=O)CO5)CC3)c2N1 (some centres unmarked) [Example 33, 1-Hydroxy-t-4-[(3-oxo-3,4-dihydro-2H-pyrido[3,2-b][1,4]oxazin-6-ylmethyl)-amino]-c-cyclohexanecarboxylic acid (3-methyl-1,2,3,4-tetrahydro-quinoxalin-5-yl)-amide dihydrochloride]
